# Measured values published in patent US12679807B2 (MERCK SHARP & DOHME LLC, priority 2020, dated 2026).
# Molecular target: T1, GCS enzyme contained within Golgi preparations isolated from human A375 malignant melanoma skin cells (Homo sapiens, UniProt Q16739)
# T1 construct: endogenous levels of GCS enzyme contained within Golgi preparations isolated from human A375 malignant melanoma skin cells; endogenous in cells; host or cells: A375 human malignant melanoma cells (crude Golgi preparation)
# T1 sequence (Q16739 1-394): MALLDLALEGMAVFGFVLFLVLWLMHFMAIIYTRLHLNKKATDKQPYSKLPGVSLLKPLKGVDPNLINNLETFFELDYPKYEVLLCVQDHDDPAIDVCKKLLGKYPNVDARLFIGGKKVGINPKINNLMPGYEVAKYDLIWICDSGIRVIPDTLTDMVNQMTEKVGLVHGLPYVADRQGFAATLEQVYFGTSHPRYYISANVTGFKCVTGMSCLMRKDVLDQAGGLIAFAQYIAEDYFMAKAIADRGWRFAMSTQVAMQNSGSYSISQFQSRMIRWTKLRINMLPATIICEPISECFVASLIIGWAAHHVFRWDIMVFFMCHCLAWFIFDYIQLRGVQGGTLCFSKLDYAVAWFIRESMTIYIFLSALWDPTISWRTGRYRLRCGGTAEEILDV
# Assay: UDP-Glo glucosylceramide synthase biochemical assay
# Conditions: crude Golgi preparation from A375 cells; C6 ceramide and UDP-glucose substrates; 20 h incubation at room temperature; UDP detected by luminescence
# Outline: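 Endogenous enzyme in A375 Golgi preparations (1.5 μg total protein) was preincubated 30 min with compound, then reacted 20 h at room temperature with UDP-glucose and ceramide.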
row,SMILES,EC50 [nM]
1,"Cn1cc(-c2ccc(-c3nccc4c3C(=O)N([C@H](C3CC3)C(C)(C)O)C4)cc2)cn1 [Compound 29, (R)-2-(1-cyclopropyl-2-hydroxy-2-methylpropyl)-4-(4-(1-methyl-1H-pyrazol-4-yl)phenyl)-1,2-dihydro-3H-pyrrolo[3,4-c]pyridin-3-one]",200
2,"CCOc1ccccc1C(=O)Nc1cccc2c1C(=O)N(CC1(O)COC1)C2 [Compound 106, 2-ethoxy-N-(2-((3-hydroxyoxetan-3-yl)methyl)-3-oxoisoindolin-4-yl)benzamide]",720
3,"O=C1c2c(cccc2-c2ccccc2OCC(F)(F)F)CN1CCC1CCC(O)C1 (racemic) [Compound 47, (cis and trans racemic)-2-(2-(3-hydroxycyclopentyl)ethyl)-7-(2-(2,2,2-trifluoroethoxy)phenyl) isoindolin-1-one]",380
4,"CC(C)(O)C(C1CC1)N1Cc2cccc(/C=C/c3ccnc4c3CCC4)c2C1=O (single isomer, unassigned) [Compound 171, (R or S)-(E)-2-(1-Cyclopropyl-2-hydroxy-2-methylpropyl)-7-(2-(6,7-dihydro-5H-cyclopenta[b]pyridin-4-yl)vinyl)isoindolin-1-one]",230
5,"C[C@@H](C1CC1)N1Cc2cccc(NC(=O)c3c(Cl)cnc4c3OCO4)c2C1=O [Compound 137, (S)-6-chloro-N-(2-(1-cyclopropylethyl)-3-oxoisoindolin-4-yl)-[1,3]dioxolo[4,5-b]pyridine-7-carboxamide]",77
6,"Cc1nnc(-c2ccc(-c3c(F)cc(O)c4c3C(=O)N([C@H](C3CC3)C(C)(C)O)C4)cc2)o1 [Compound 59, (R)-2-(1-cyclopropyl-2-hydroxy-2-methylpropyl)-6-fluoro-4-hydroxy-7-(4-(5-methyl-1,3,4-oxadiazol-2-yl)phenyl) isoindolin-1-one]",9.9
7,"Cc1nn(C)c2ccc(-c3c(F)ccc4c3C(=O)N([C@H](C3CC3)C(C)(C)O)C4)cc12 [Compound 55, (R)-2-(1-cyclopropyl-2-hydroxy-2-methylpropyl)-7-(1,3-dimethyl-1H-indazol-5-yl)-6-fluoroisoindolin-1-one]",0.18
8,"CC(C)(O)C(C1CC1)N1Cc2cccc(NC(=O)c3ccnc4c3OCCO4)c2C1=O (single isomer, unassigned) [Compound 163, (R or S)-N-(2-(1-cyclopropyl-2-hydroxy-2-methylpropyl)-3-oxoisoindolin-4-yl)-2,3-dihydro-[1,4]dioxino[2,3-b]pyridine-8-carboxamide]",61
9,"Cn1nc(-c2cccc3c2C(=O)N([C@H](C2CC2)C(C)(C)O)C3)c2ccccc21 [Compound 79, (R)-2-(1-cyclopropyl-2-hydroxy-2-methylpropyl)-7-(1-methyl-1H-indazol-3-yl)isoindolin-1-one]",2.1
10,"COCC(C1CC1)N1Cc2cccc(NC(=O)c3ccnc4c3CCC4)c2C1=O (single isomer, unassigned) [Compound 136, (R or S)-N-(2-(1-cyclopropyl-2-methoxyethyl)-3-oxoisoindolin-4-yl)-6,7-dihydro-5H-cyclopenta[b]pyridine-4-carboxamide]",80
11,"Cc1cnc2c(c1C(=O)Nc1cccc3c1C(=O)N(C(C1CC1)C1CC1)C3)OCO2 [Compound 117, N-(2-(dicyclopropylmethyl)-3-oxoisoindolin-4-yl)-6-methyl-[1,3]dioxolo[4,5-b]pyridine-7-carboxamide]",5.2
12,"Cc1nn(C)c2ccc(-c3cccc4c3C(=O)N([C@H](C3CC3)C(C)(C)O)C4)cc12 [Compound 86, (R)-2-(1-cyclopropyl-2-hydroxy-2-methylpropyl)-7-(1,3-dimethyl-1H-indazol-5-yl)isoindolin-1-one]",0.58
13,"O=C1c2c(cccc2-c2ccccc2OCC(F)(F)F)CN1[C@@H](CO)C1CC1 [Compound 49, (R)-2-(1-cyclopropyl-2-hydroxyethyl)-7-(2-(2,2,2-trifluoroethoxy)phenyl) isoindolin-1-one]",92
14,"Cc1nnc(-c2ccc(-c3c(Cl)ccc4c3C(=O)N([C@H](C3CC3)C(C)(C)O)C4)cc2)o1 [Compound 40, (R)-6-chloro-2-(1-cyclopropyl-2-hydroxy-2-methylpropyl)-7-(4-(5-methyl-1,3,4-oxadiazol-2-yl)phenyl)isoindolin-1-one]",0.98
15,"COc1ccc2ncc(F)c(C(=O)Nc3cccc4c3C(=O)N(CC3CC3)C4)c2n1 [Compound 135, N-(2-(cyclopropylmethyl)-3-oxoisoindolin-4-yl)-3-fluoro-6-methoxy-1,5-naphthyridine-4-carboxamide]",64
16,"CC(C)(O)C(C1CC1)N1Cc2cccc(NC(=O)c3c(F)ccc(F)c3Cl)c2C1=O (single isomer, unassigned) [Compound 115, (R or S)-2-chloro-N-(2-(1-cyclopropyl-2-hydroxy-2-methylpropyl)-3-oxoisoindolin-4-yl)-3,6-difluorobenzamide]",1.5
17,"Cc1nnc(-c2ncc(-c3cccc4c3C(=O)N([C@H](C3CC3)C(C)(C)O)C4)cc2F)o1 [Compound 66, (R)-2-(1-cyclopropyl-2-hydroxy-2-methylpropyl)-7-(5-fluoro-6-(5-methyl-1,3,4-oxadiazol-2-yl)pyridin-3-yl)isoindolin-1-one]",500
18,"CC(C)(O)[C@@H](C1CC1)N1Cc2cccc(-c3ccc(-c4cnsc4)cc3)c2C1=O [Compound 95, (R)-2-(1-cyclopropyl-2-hydroxy-2-methylpropyl)-7-(4-(isothiazol-4-yl)phenyl)isoindolin-1-one]",83
